Experimental data published in patent US5543426A, “Use of certain 3,7-disubstituted indole compounds for treating depression or cognitive disorders” (priority 1990, dated 1996).
pKd: −log10 of the molar value.

How the values were obtained:
Benzold Jarisch Reflex = experiment: blockade of the Benzold Jarisch Reflex (method of Fozard); assay type: in vivo; settings: read-out: ID50, blockade of the Benzold Jarisch Reflex
Procedure: Pharmacol., 326, 36-44 (1984). Example compound has an ID50 of 70 μg/kg.

mice = experiment: social stress model: plasma corticosterone rise induced by an aggressive, inaccessible male mouse; assay type: in vivo; settings: p.o., 0.1 to 1 mg/kg
Procedure: The compounds of the invention also reduce the plasma corticosterone rise induced in mice by the presence of an aggressive, but inaccessible male mouse. Compounds of the invention when given p.o. for 14 days at a dosage of from about 0.1 to 10 mg/kg restore the plasma corticosterone level to normal.
The Example compound is preferred.

5-HT3 binding sites = biological target: T1, 5-HT3 binding sites (Mus musculus, UniProt P23979); experiment: binding to 5-HT3 binding sites, N1E-115 cells (method of Hoyer and Neijt)
T1 construct: endogenous in cells; host or cells: N1E-115
Excerpt: 1. their potent and selective binding properties to 5-HT3 binding sites, e.g. to N1E-115 cells measured according to the method disclosed by D. Hoyer and H.C. Neijt, Mol. Pharm., 33, 303-309.

gastric emptying in rats = experiment: gastric emptying of glass spheres in rats; assay type: in vivo; settings: Rattus norvegicus, ip, given 15 min before 25 glass spheres, emptying measured 5, 10, 15 and 30 min after, read-out: ED50, promoting effect on gastric emptying
Procedure: 2. their promoting effect on gastric emptying in rats as indicated in standard in vivo tests when administered i.p. at doses of about 0.01 to about 1 mg/kg. The compounds to be tested are administered 15 min. before the administration of 25 glass spheres and gastric emptying is measured 5, 10, 15 and 30 min. after administration of the spheres. Example compound has an ED50 of 0.2 mg/kg i.p.

T1 sequence (P23979 24-489): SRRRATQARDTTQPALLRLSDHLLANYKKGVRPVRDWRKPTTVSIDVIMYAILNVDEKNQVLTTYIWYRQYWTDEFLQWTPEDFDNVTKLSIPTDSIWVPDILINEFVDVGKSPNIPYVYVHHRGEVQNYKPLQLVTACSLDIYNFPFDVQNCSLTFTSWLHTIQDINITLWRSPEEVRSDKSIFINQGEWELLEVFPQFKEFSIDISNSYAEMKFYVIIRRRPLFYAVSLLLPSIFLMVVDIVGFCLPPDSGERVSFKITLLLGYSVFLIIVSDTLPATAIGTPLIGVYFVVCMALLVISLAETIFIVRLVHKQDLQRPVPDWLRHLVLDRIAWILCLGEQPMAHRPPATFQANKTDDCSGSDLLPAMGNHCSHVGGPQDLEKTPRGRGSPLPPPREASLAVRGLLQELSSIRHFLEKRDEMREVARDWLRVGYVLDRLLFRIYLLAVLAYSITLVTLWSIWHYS

SMILES: COc1cccc2c(C(=O)O[C@H]3C[C@H]4CC[C@@H](C3)N4C)c[nH]c12 [Example compound, 7-Methoxy-1H-indol-3-carboxylic acid-(1αH, 5αH)-8-methyl-8-aza-bicyclo3,2,1oct-3α-yl-ester]
- ED50 (Benzold Jarisch Reflex): 0.07 mg/kg
- stress-induced corticosterone concentration in plasma (mice): reduces the stress-induced corticosterone concentration in plasma
- pKd (5-HT3 binding sites): 8.87
- ED50 (gastric emptying in rats): 0.2 mg/kg
